How the values were obtained:
[1] = Fipronil-Worldwide technical Bulletin, BASF; cited from earlier work
[2] = system: J553x(HIIIAxA188) null and transgenic corn; test: Fipronil/Pyraclostrobin study, initial trial: seed treatment, greenhouse growth, LemnaTec Scanalyzer imaging and harvest; type: in vivo, maize (Zea Mays L.); conditions: for Internode 1 length / Internode 2 length / Internode 3 length: seed treatment; for Fresh Weight: hand-collected
Procedure: (§1) J553x(HIIIAxA188) null and transgenic corn seeds of the T2 generation were treated with deionized water (Blank), 200 grams fipronil, 10 grams pyraclostrobin (F500), and 200 grams fipronil+10 grams pyraclostrobin; all formulation rates were grams/100 kg seed. Every formulation was applied to approximately 80 seeds. The formulation was pipetted into a 125 ml flask along the sides and bottom of the flask before adding the seeds and shaking the flask for 30 seconds. The coated seeds were then removed from the flask and placed in a plastic dish for drying.
(§2) Seventy-five 3-L pots per treatment (Blank, fipronil, pyraclostrobin, and fipronil+pyraclostrobin) were filled with potting media, labeled with colored stakes, and given a unique barcode. One seed per pot was planted at a depth of approximately 2 cm and covered with media. The media was lightly watered to imbibe the seeds, while allowing for ample oxygen exchange and so that the chemical coatings on the seeds remained intact. After planting, the pots were randomly distributed into three replicate blocks (1 bench=1 block), each with 25 plants of every treatment.
(§3) The plants were maintained in a greenhouse under optimal, well-watered conditions (80-90% field capacity) upon emergence. Supplemental nutrients were administered every third day during watering. The greenhouse temperature was maintained at 30° C., relative humidity at 75%, and light at 350 μmol m^−2s^−1, in a 15-hour day/9-hour night photoperiod. Supplemental lighting was provided using metal-halide lights. Once per week, the pots were randomly mixed within each block.
(§4) On day 21, the plants were imaged to collect the phenotypic data as described in the Imaging Procedures section. Leaves were sampled for transgene copy number on day 25 to identify the null and transgenic plants. On day 28, the plants were imaged and then harvested to collect fresh weight. The presence of the transgene was determined by the Taqman molecular analysis technique. Differences in the phenotypic data collected during the imaging process and in fresh weight among the four treatments and between the null and transgenic plants were assessed. The chemical by transgenic interactions were determined.
(§5) Imaging of the plants was facilitated using a LemnaTec Scanalyzer (Würselen, Germany), which includes a conveyor belt, an imaging station, a watering station, and computers for collecting, processing, and storing the image data. The cameras have a resolution of 1280×960 pixels and operate in 24-bit color.
(§6) The plants were manually transferred by block onto the conveyor system of the scanalyzer. Each plant was then moved through the imager automatically. At the imaging station, cameras collected the top view image and two side view images. The side view images were the transverse view and the view parallel with the plane of the plant.
(§7) As described in the formula (see Appendix A), the scanalyzer calculates plant volume as a number of pixels. To assign a physiologically meaningful value to the volume measurements, a separate experiment was conducted. The plants were scanned with the scanalyzer then harvested. The plant material was placed into a graduated cylinder filled to a known volume with water. The difference between the water plus plant material and water alone provided a known plant volume in mL.
(§8) Using the LemnaTec scanalyzer, we collected stem width; stalk volume; top, transverse, and parallel view plant areas; top, transverse, and parallel view green and yellow pixel counts; stem length; leaf angles and internode lengths through leaf 5; plant width and height; total leaf length; and total plant length.
(§9) Fresh Weight—A measurement of the fresh weight of the plant in grams. Hand-collected fresh weight is measured by harvesting the plant and weighing it on a balance. LemnaTec fresh weight is calculated by the scanalyzer based on plant volume and plant age. The zoom angles of the camera lenses are normalized using a calibration table. […]

[3] = system: J553x(HIIIAxA188) null and transgenic corn; test: Fipronil/Pyraclostrobin study, second trial: seed treatment, greenhouse growth, LemnaTec Scanalyzer imaging; type: in vivo, maize (Zea Mays L.)
Procedure: as §1, §2, §3, §4, §5, §6, §7, §8, §9

[4] = initial trial, relative to all other treatments

Q: With `N#Cc1nn(-c2c(Cl)cc(C(F)(F)F)cc2Cl)c(N)c1[S+]([O-])C(F)(F)F` (stereo not drawn) [Fipronil, 5-amino-1-(2,6-dichloro-α,α,α-trifluoro-p-tolyl)-4-trifluoromethylsulfinylpyrazole-3-carbonitrile] as the molecule, how does the “reported plant performance effects” value [1] read?
A: Its value is “enhance overall root system and root hair development, increase tiller number and productivity, increase photosynthetic capacity (plant greenness), increase leaf area and plant height, stimulate early flowering and grain maturation leading to significant increases in yield”.

Q: What about the “# Fully Expanded Leaves” value ([2]; Avg) of the same molecule?
A: The value was 3.0.

Q: What about the “Leaf Angle 0” value ([2]; Avg) of the same molecule?
A: The value was 63.2 degrees.

Q: What about the “Leaf Angle 1” value ([2]; Avg) of the same molecule?
A: Its value is 58.9 degrees.

Q: What about the “Plant Volume” value ([2]; Avg) of the same molecule?
A: The value was 6.70E+06 pixels.

Q: What about the “Stem Length” value ([2]; Avg) of the same molecule?
A: The value was 108.8 cm.

Q: And the “stalk area from the transverse view, Pixel Count” value (from here on “stalk area”) ([2]; Avg)?
A: Its value is 4910 pixels.

Q: What about the “Internode 1 length” value ([2]; Avg of null and transgenic) of the same molecule?
A: Its value is 35.9 cm.

Q: And the “Internode 2 length” value ([2]; Avg of null and transgenic)?
A: Its value is 44.2 cm.

Q: And the “Internode 3 length” value ([2]; Avg of null and transgenic)?
A: Its value is 40.0 cm.

Q: And the “# Fully Expanded Leaves” value ([2]; Null plants)?
A: The value was 3.1.

Q: And the “Leaf Angle 0” value ([2]; Null plants)?
A: The value was 57.5 degrees.

Q: And the “Leaf Angle 1” value ([2]; Null plants)?
A: The value was 63.6 degrees.

Q: And the “Plant Volume” value ([2]; Null plants)?
A: The value was 6.53E+06 pixels.

Q: What about the “Stem Length” value ([2]; Null plants) of the same molecule?
A: The value was 110.4 cm.

Q: And the “stalk area” value ([2]; Null plants)?
A: The value was 5081 pixels.

Q: What about the “Internode 1 length” value ([2]; Null plants) of the same molecule?
A: Its value is 35.3 cm.

Q: What about the “Internode 2 length” value ([2]; Null plants) of the same molecule?
A: Its value is 45.9 cm.

Q: And the “Internode 3 length” value ([2]; Null plants)?
A: Its value is 42.4 cm.

Q: What about the “Internode 1 length” value ([2]; Trans (transgenic) plants) of the same molecule?
A: The value was 36.6 cm.

Q: What about the “Internode 2 length” value ([2]; Trans (transgenic) plants) of the same molecule?
A: The value was 42.5 cm.

Q: And the “Internode 3 length” value ([2]; Trans (transgenic) plants)?
A: The value was 37.7 cm.

Q: What about the “# Fully Expanded Leaves” value ([2]; Trans plants) of the same molecule?
A: The value was 3.0.

Q: What about the “Leaf Angle 0” value ([2]; Trans plants) of the same molecule?
A: Its value is 68.7 degrees.

Q: And the “Leaf Angle 1” value ([2]; Trans plants)?
A: Its value is 54.4 degrees.

Q: And the “Plant Volume” value ([2]; Trans plants)?
A: The value was 6.86E+06 pixels.

Q: What about the “Stem Length” value ([2]; Trans plants) of the same molecule?
A: The value was 107.1 cm.

Q: And the “stalk area” value ([2]; Trans plants)?
A: The value was 4744 pixels.

Q: And the “Fresh Weight” value ([2]; Avg)?
A: The value was 162.8 grams.

Q: And the “Fresh Weight” value ([2]; Null plants)?
A: Its value is 160.9 grams.

Q: And the “Fresh Weight” value ([2]; Trans plants)?
A: Its value is 164.7 grams.

Q: What about the “fresh mass (in words)” value ([2]; initial trial, in general) of the same molecule?
A: Its value is “enhanced”.

Q: What about the “plant height (in words)” value ([2]; initial trial, in general) of the same molecule?
A: The value was “enhanced”.

Q: What about the “plant volume (in words)” value ([2]; initial trial, in general) of the same molecule?
A: Its value is “enhanced”.

Q: And the “plant width (in words)” value ([2]; initial trial, in general)?
A: The value was “enhanced”.

Q: What about the “greenness (in words)” value [2, 4] of the same molecule?
A: Its value is “enhanced”.

Q: What about the “internode length (in words)” value [2, 4] of the same molecule?
A: The value was “enhanced”.

Q: What about the “leaf angle (in words)” value [2, 4] of the same molecule?
A: The value was “enhanced”.

Q: What about the “plant area (in words)” value [2, 4] of the same molecule?
A: The value was “enhanced”.

Q: What about the “Dark Green Count” value ([2]; parallel view, Avg) of the same molecule?
A: Its value is 16389.5 pixels.

Q: And the “Medium Green Count” value ([2]; parallel view, Avg)?
A: Its value is 5662.4 pixels.

Q: And the “Plant Area” value ([2]; parallel view, Avg)?
A: The value was 23760.8 pixels.

Q: What about the “Yellow Count” value ([2]; parallel view, Avg) of the same molecule?
A: The value was 1708.9 pixels.

Q: And the “Dark Green Count” value ([2]; parallel view, Null plants)?
A: Its value is 15955.0 pixels.

Q: And the “Medium Green Count” value ([2]; parallel view, Null plants)?
A: Its value is 5470.9 pixels.

Q: And the “Plant Area” value ([2]; parallel view, Null plants)?
A: The value was 23035.0 pixels.

Q: And the “Yellow Count” value ([2]; parallel view, Null plants)?
A: The value was 1609.1 pixels.

Q: What about the “Dark Green Count” value ([2]; parallel view, Trans plants) of the same molecule?
A: The value was 16812.3 pixels.

Q: What about the “Medium Green Count” value ([2]; parallel view, Trans plants) of the same molecule?
A: Its value is 5848.7 pixels.

Q: What about the “Plant Area” value ([2]; parallel view, Trans plants) of the same molecule?
A: Its value is 24467.0 pixels.

Q: What about the “Yellow Count” value ([2]; parallel view, Trans plants) of the same molecule?
A: The value was 1806.0 pixels.

Q: What about the “Medium Green Count” value ([2]; top view, Avg) of the same molecule?
A: The value was 17465 pixels.

Q: What about the “Medium Green Count” value ([2]; top view, Null plants) of the same molecule?
A: Its value is 17038 pixels.

Q: What about the “Medium Green Count” value ([2]; top view, Trans plants) of the same molecule?
A: The value was 17881 pixels.

Q: What about the “Medium Green Count” value ([2]; transverse view, Avg) of the same molecule?
A: Its value is 9089.0 pixels.

Q: And the “Yellow Count” value ([2]; transverse view, Avg)?
A: The value was 3363.6 pixels.

Q: And the “Medium Green Count” value ([2]; transverse view, Null plants)?
A: The value was 9132.8 pixels.

Q: And the “Yellow Count” value ([2]; transverse view, Null plants)?
A: The value was 3268.7 pixels.

Q: And the “Medium Green Count” value ([2]; transverse view, Trans plants)?
A: The value was 9046.4 pixels.

Q: What about the “Yellow Count” value ([2]; transverse view, Trans plants) of the same molecule?
A: The value was 3455.9 pixels.

Q: What about the “Broad Side Drk Grn” value ([3]; Avg) of the same molecule?
A: The value was 25067.65 pixels.

Q: And the “Broad Side Plnt Area” value ([3]; Avg)?
A: The value was 35413.12 pixels.

Q: And the “Calc Fresh Weight” value ([3]; Avg)?
A: Its value is 100.77 g.

Q: And the “Narrow Side Drk Grn” value ([3]; Avg)?
A: Its value is 25969.34 pix.

Q: What about the “Plant Volume” value ([3]; Avg) of the same molecule?
A: The value was 9.19 M pixels.

Q: What about the “Top Drk Grn” value ([3]; Avg) of the same molecule?
A: Its value is 57132.20 pixels.

Q: What about the “Broad Side Drk Grn” value ([3]; Null plants) of the same molecule?
A: The value was 26176.97 pixels.

Q: And the “Broad Side Plnt Area” value ([3]; Null plants)?
A: The value was 36398.18 pixels.

Q: What about the “Calc Fresh Weight” value ([3]; Null plants) of the same molecule?
A: The value was 99.88 g.

Q: And the “Narrow Side Drk Grn” value ([3]; Null plants)?
A: The value was 24703.55 pix.

Q: What about the “Plant Volume” value ([3]; Null plants) of the same molecule?
A: Its value is 8.89 M pixels.

Q: What about the “Top Drk Grn” value ([3]; Null plants) of the same molecule?
A: The value was 56608.71 pixels.

Q: What about the “Broad Side Drk Grn” value ([3]; Trans plants) of the same molecule?
A: The value was 23958.33 pixels.

Q: And the “Broad Side Plnt Area” value ([3]; Trans plants)?
A: Its value is 34428.06 pixels.

Q: What about the “Calc Fresh Weight” value ([3]; Trans plants) of the same molecule?
A: The value was 101.65 g.

Q: And the “Narrow Side Drk Grn” value ([3]; Trans plants)?
A: The value was 27235.14 pix.

Q: What about the “Plant Volume” value ([3]; Trans plants) of the same molecule?
A: The value was 9.50 M pixels.

Q: And the “Top Drk Grn” value ([3]; Trans plants)?
A: Its value is 57655.69 pixels.

— US20100093715A1, “Plant productivity enhancement by combining chemical agents with transgenic modifications” (BASF SE, priority 2007, published 2010)
